Key:
Type in all cases: in vivo
Botrytis cinerea = test: Use Example 2: activity against gray mold on bell pepper leaves caused by Botrytis cinerea, protective application; details: 250 ppm, rated after 5 days, untreated plants 90% infected
Experimental: (§1) For the use examples 1 to 5 the active compounds were prepared separately as a stock solution with 0.25% by weight of active compound in acetone or DMSO. 1% by weight of the emulsifier Wettol® EM 31 (wetting agent having emulsifying and dispersing action based on ethoxylated alkylphenols) was added to this solution, and the solution was diluted with water to the desired concentration.
Bell pepper leaves of the cultiva “Neusiedler Ideal Elite” were, after 2 to 3 leaves had become well developed, sprayed to runoff point with an aqueous suspension having the concentration of active compounds stated below. The next day, the treated plants were inoculated with an aqueous spore suspension of Botrytis cinerea in a 2% aqueous biomalt solution having a density of 1.7×10^6 spores/ml. The plants were then placed in a climatized chamber at temperatures between 22 and 24° C. and at high atmospheric humidity. After 5 days, the extent of the fungal infection was determined visually by the infected leaf area.

Puccinia recondita = test: Use Example 5: curative activity against brown rust of wheat caused by Puccinia recondita; details: 250 ppm, wheat seedlings, curative (sprayed one day after inoculation), 7 days; untreated plants 90% infected
Experimental: as §1
Leaves of potted wheat seedlings of the cultivar “Kanzler” were inoculated with a spore suspension of brown rust (Puccinia recondita). The pots were then placed in a chamber at high atmospheric humidity (90 to 95%) and 20 to 22° C. for 24 hours. During this time, the spores germinated and the germ tubes penetrated into the leaf tissue. The next day, the infected plants were sprayed to runoff point with an aqueous suspension having the active compound concentration stated below. The suspension or emulsion had been prepared as described above. After the spray coating had dried, the test plants were cultivated in a greenhouse at temperatures between 20 and 22° C. and at 65 to 70% relative atmospheric humidity for 7 days. The extent of the rust fungus development on the leaves was then determined.

Plasmopara viticola = test: Use Example 4: activity against peronospora of grapevines caused by Plasmopara viticola; details: 63 ppm, potted grapevines, protective; untreated plants 90% infected
Experimental: as §1
Leaves of potted grapevines were sprayed to runoff point with an aqueous suspension having the concentration of active compounds stated below. The next day, the undersides of the leaves were inoculated with an aqueous sporangia suspension of Plasmopara viticola. The plants were then initially placed in a water-vapor-saturated chamber for 48 h and then in a greenhouse at temperatures between 20 and 30° C. After this period of time, the plants were, to promote sporangial eruption, again placed in the water-vapor-saturated chamber for 16 h. The extent of the development of the infection on the undersides of the leaves was then determined.

Alternaria solani = test: Use Example 1: activity against early blight caused by Alternaria solani (tomato plants); details: 250 ppm, tomato plants sprayed one day before infection, rated after 5 days; untreated plants 90% infected
[1] = tested on: Erysiphe [syn. Blumeria] graminis forma specialis. tritici; test: Use Example 3: activity against mildew of wheat caused by Erysiphe [syn. Blumeria] graminis forma specialis tritici; details: 250 ppm, wheat seedlings, protective, rated after 7 days; untreated plants 90% infected
Experimental: as §1
Leaves of potted wheat seedlings of the cultiva “Kanzler” were sprayed to runoff point with an aqueous suspension having the concentration of active compounds stated below. 24 h after the spray coating had dried on, the leaves were dusted with the spores of mildew of wheat (Erysiphe [syn. Blumeria] graminis form a specialis. tritici). The plants were then placed in a greenhouse at temperatures between 20 and 24° C. and at 60-90% relative atmospheric humidity. After 7 days, the extent of the fungal infection was determined visually by the infected leaf area.

| SMILES | infection (infected leaf area) (Botrytis cinerea) | infection (rust fungus development) (Puccinia recondita) | infection (Plasmopara viticola) | infection (Alternaria solani) | infection (infected leaf area) [1] |
| --- | --- | --- | --- | --- | --- |
| Cc1ccc(-c2ncc3c(n2)CCCCC3)nc1-c1ccccc1 [Example 6] | no infection | – | – | – | – |
| Cc1ccc(-c2ncc3c(n2)CCCC3)nc1-c1ccc(F)cc1 [2-(5-methyl-6-(4-fluorophenyl)pyridin-2-yl)-5,6,7,8-tetrahydroquinazoline, reference compound] | – | 50% | 70% | 80% | 80% |
| Cc1ccc(-c2ncc3c(n2)CCCCC3)nc1-c1ccccc1 [Example 1, 2-(5-methyl-6-phenylpyridin-2-yl)-6,7,8,9-tetrahydro-5H-cycloheptapyrimidine] | – | – | – | no infection | – |
| Fc1ccc(-c2cccc(-c3ncc4c(n3)CCCCC4)n2)cc1 [Example 7] | no infection | – | no infection | no infection | 20% |
| c1ccc(-c2cccc(-c3ncc4c(n3)CCCCCC4)n2)cc1 [Example 11] | no infection | – | – | no infection | – |
| Cc1ccc(-c2ncc3c(n2)CCCCC3)nc1-c1ccc(F)cc1 [Example 9] | – | 20% | – | no infection | – |

From patent US7786043B2, “2-(pyridin-2-yl)-pyrimidines and their use for controlling harmful fungi” (BASF Aktiengesellschaft, priority 2004, dated 2010)
